Drawing on patent publication US11130769B2 (Prelude Therapeutics Incorporated, priority 2018, dated 2021), this text covers IC50 and Ki for 17 molecules.

Like-named read-outs stand apart in the source and are kept apart here.

The test system of one assay is H929 cells. Kind of assay: Cell viability assay (H929 10 FBS). The class given is cell-based. The settings on record: Homo sapiens, NCI-H929, 24 hours, read-out: H929_10FBS IC50. In short, it runs like this:
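H929 cells, 4000/well, in RPMI 1640 with 10% FBS, sodium pyruvate, HEPES and glucose were exposed to compound 24 h at 37 °C. Viability read as luminescence after 30-60 min at RT with CellTiter-Glo or ATPlite 1 Step.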

The target in a further assay is MCL-1 (Homo sapiens (Human), UniProt Q07820). Nature of the assay: Cell free Mcl-1:Bim affinity assay (fluorescence polarization competition). The assay is classed as binding. The settings on record: 15 nM MCL-1, 5 nM FITC-Bim, 1 hour at room temperature, read-out: BIM_Ki. The gist of the method:
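Compounds competed with FITC-labelled Bim peptide (5 nM) for MCL-1 (15 nM) in HEPES/NaCl buffer with 1% DMSO, 1 h at room temperature. Fluorescence polarization (535 nm emission) gave % inhibition versus DMSO and positive controls; IC50 from 10-point curves, converted to Ki by the Nikolovska-Coleska equation.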
Background: In fluorescence polarisation assays a small probe gives low polarisation when free and higher when bound to something large.

Sequence of MCL-1 (Q07820 whole entry): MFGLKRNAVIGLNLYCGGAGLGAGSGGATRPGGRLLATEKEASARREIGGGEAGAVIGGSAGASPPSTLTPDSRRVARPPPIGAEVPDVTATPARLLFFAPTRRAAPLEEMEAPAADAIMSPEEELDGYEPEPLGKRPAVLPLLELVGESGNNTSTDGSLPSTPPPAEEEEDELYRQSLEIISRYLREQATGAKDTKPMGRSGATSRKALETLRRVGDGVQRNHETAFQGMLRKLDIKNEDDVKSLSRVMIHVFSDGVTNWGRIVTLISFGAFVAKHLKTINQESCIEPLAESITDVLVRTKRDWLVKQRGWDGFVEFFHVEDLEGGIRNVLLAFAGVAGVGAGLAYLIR

A word on the IC50: it is the point on the concentration scale where inhibition reaches its midpoint. Consider `COCCN1CCCN(C(=O)O[C@H]2/C=C/COC(C)(C)C(=O)NS(=O)(=O)c3ccc4c(c3)N(C[C@@H]3CC[C@H]32)C[C@@]2(CCCc3cc(Cl)ccc32)CO4)CC1` [Example 60, [(3R,6R,7S,8E,22S)-6′-Chloro-12,12-dimethyl-13,15,15-trioxo-spiro[11,20-dioxa-15-thia-1,14-diazatetracyclo[14.7.2.03,6.019,24]pentacosa-8,16,18,24-tetraene-22,1′-tetralin]-7-yl] 4-(2-methoxyethyl)-1,4-diazepane-1-carboxylate], for which, in the assay on H929 cells, the IC50 was under 500 nM. The Ki on MCL-1 (class symbols) is under 1 nM.

For the molecule `CONC(=O)O[C@H]1/C=C/COC(C)(C)C(=O)NS(=O)(=O)c2ccc3c(c2)N(C[C@@H]2CC[C@H]21)C[C@@]1(CCCc2cc(Cl)ccc21)CO3` [Example 167, [(3R,6R,7S,8E,22S)-6′-Chloro-12,12-dimethyl-13,15,15-trioxo-spiro[11,20-dioxa-15-thia-1,14-diazatetracyclo[14.7.2.03,6.019,24]pentacosa-8,16,18,24-tetraene-22,1′-tetralin]-7-yl] N-methoxycarbamate], the IC50 in the assay with H929 cells was under 500 nM. Further, at MCL-1 (class symbols), the Ki is under 1 nM.

Consider `CN1C/C=C/[C@H](OCCN2CC[C@@H](F)C2)[C@@H]2CC[C@H]2CN2C[C@@]3(CCCc4cc(Cl)ccc43)COc3ccc(cc32)S(=O)(=O)NC(=O)C1(C)C` [Example 276, (3R,6R,7S,8E,22S)-6′-Chloro-7-[2-[(3R)-3-fluoropyrrolidin-1-yl]ethoxy]-11,12,12-trimethyl-15,15-dioxo-spiro[20-oxa-15-thia-1,11,14-triazatetracyclo[14.7.2.03,6.019,24]pentacosa-8,16,18,24-tetraene-22,1′-tetralin]-13-one], for which the IC50 with H929 cells was under 1000 nM. In addition, the Ki at MCL-1 (class symbols) was under 1 nM.

On to `CN1C/C=C/[C@H](OC(=O)N[C@H]2CCOC2)[C@@H]2CC[C@H]2CN2C[C@@]3(CCCc4cc(Cl)ccc43)COc3ccc(cc32)S(=O)(=O)NC(=O)C1(C)C` [Example 212, [(3R,6R,7S,8E,22S)-6′-Chloro-11,12,12-trimethyl-13,15,15-trioxo-spiro[20-oxa-15-thia-1,11,14-triazatetracyclo[14.7.2.03,6.019,24]pentacosa-8,16,18,24-tetraene-22,1′-tetralin]-7-yl] N-[(3S)-tetrahydrofuran-3-yl]carbamate], for which the IC50 in the assay with H929 cells is under 500 nM. The Ki on MCL-1 (class symbols) was under 1 nM.

For the molecule `COC1CCN(C(=O)O[C@H]2/C=C/COC(C)(C)C(=O)NS(=O)(=O)c3ccc4c(c3)N(C[C@@H]3CC[C@H]32)C[C@@]2(CCCc3cc(Cl)ccc32)CO4)CC1` [Example 51, [(3R,6R,7S,8E,22S)-6′-Chloro-12,12-dimethyl-13,15,15-trioxo-spiro[11,20-dioxa-15-thia-1,14-diazatetracyclo[14.7.2.03,6.019,24]pentacosa-8,16,18,24-tetraene-22,1′-tetralin]-7-yl] 4-methoxypiperidine-1-carboxylate], the IC50 with H929 cells is under 500 nM. The Ki at MCL-1 (class symbols) was under 1 nM.

As to `CC1(C)OC/C=C/[C@H](OC(=O)NC2CCOCC2)[C@@H]2CC[C@H]2CN2C[C@@]3(CCOc4cc(Cl)ccc43)COc3ccc(cc32)S(=O)(=O)NC1=O` [Example 305, [(3R,6R,7S,8E,22S)-7′-Chloro-12,12-dimethyl-13,15,15-trioxo-spiro[11,20-dioxa-15-thia-1,14-diazatetracyclo[14.7.2.03,6.019,24]pentacosa-8,16,18,24-tetraene-22,4′-chromane]-7-yl] N-tetrahydropyran-4-yl-carbamate], the IC50 with H929 cells is under 500 nM. Also, the Ki at MCL-1 (class symbols) is under 1 nM.

`CCN1C/C=C/[C@H](OC(=O)N2CC(NC)C2)[C@@H]2CC[C@H]2CN2C[C@@]3(CCCc4cc(Cl)ccc43)COc3ccc(cc32)S(=O)(=O)NC(=O)C1(C)C` [Example 223, [(3R,6R,7S,8E,22S)-6′-Chloro-11-ethyl-12,12-dimethyl-13,15,15-trioxo-spiro[20-oxa-15-thia-1,11,14-triazatetracyclo[14.7.2.03,6.019,24]pentacosa-8,16,18,24-tetraene-22,1′-tetralin]-7-yl] 3-(methylamino)azetidine-1-carboxylate]: the IC50 with H929 cells was under 500 nM. The Ki at MCL-1 (class symbols) is under 1 nM.

For the molecule `CC1(C)OC/C=C/[C@H](OC(=O)NCC2CC2)[C@@H]2CC[C@H]2CN2C[C@@]3(CCCc4cc(Cl)ccc43)COc3ccc(cc32)S(=O)(=O)NC1=O` [Example 183, [(3R,6R,7S,8E,22S)-6′-Chloro-12,12-dimethyl-13,15,15-trioxo-spiro[11,20-dioxa-15-thia-1,14-diazatetracyclo[14.7.2.03,6.019,24]pentacosa-8,16,18,24-tetraene-22,1′-tetralin]-7-yl] N-(cyclopropylmethyl)carbamate], the IC50 in the assay with H929 cells was under 500 nM. Besides, the Ki on MCL-1 (class symbols) was under 1 nM.

Regarding `CN1C/C=C/[C@H](OCCN2CC(F)(F)C2)[C@@H]2CC[C@H]2CN2C[C@@]3(CCCc4cc(Cl)ccc43)COc3ccc(cc32)S(=O)(=O)NC(=O)C1(C)C` [Example 287, (3R,6R,7S,8E,22S)-6′-Chloro-7-[2-(3,3-difluoroazetidin-1-yl)ethoxy]-11,12,12-trimethyl-15,15-dioxo-spiro[20-oxa-15-thia-1,11,14-triazatetracyclo[14.7.2.03,6.019,24]pentacosa-8,16,18,24-tetraene-22,1′-tetralin]-13-one], the IC50 in the assay on H929 cells is under 500 nM. On MCL-1 (class symbols), the Ki is under 1 nM.

As to `CN1C/C=C/[C@H](OC(=O)N2CCN3CCOCC3C2)[C@@H]2CC[C@H]2CN2C[C@@]3(CCCc4cc(Cl)ccc43)COc3ccc(cc32)S(=O)(=O)NC(=O)C1(C)C` (stereo in doubt) [Example 208, [(3R,6R,7S,8E,22S)-6′-Chloro-11,12,12-trimethyl-13,15,15-trioxo-spiro[20-oxa-15-thia-1,11,14-triazatetracyclo[14.7.2.03,6.019,24]pentacosa-8,16,18,24-tetraene-22,1′-tetralin]-7-yl] (9aS)-3,4,6,7,9,9a-hexahydro-1H-pyrazino[2,1-c][1,4]oxazine-8-carboxylate], the IC50 with H929 cells is under 500 nM. For the same molecule, the Ki at MCL-1 (class symbols) lay in the range of 1 to 100 nM.

`CNC(=O)O[C@H]1/C=C/CN(C)C(C)(C)C(=O)NS(=O)(=O)c2ccc3c(c2)N(C[C@@H]2CC[C@H]21)C[C@@]1(CCCc2cc(Cl)ccc21)CO3` [Example 203, [(3R,6R,7S,8E,22S)-6′-Chloro-11,12,12-trimethyl-13,15,15-trioxo-spiro[20-oxa-15-thia-1,11,14-triazatetracyclo[14.7.2.03,6.019,24]pentacosa-8,16,18,24-tetraene-22,1′-tetralin]-7-yl] N-methylcarbamate]: in the assay on H929 cells, the IC50 was under 500 nM. At MCL-1 (class symbols), the Ki is under 1 nM.

For `CN(C)C(=O)CO[C@@H]1/C=C/COC2(CC2)C(=O)NS(=O)(=O)c2ccc3c(c2)N(C[C@@H]2CC[C@H]21)C[C@@]1(CCCc2cc(Cl)ccc21)CO3` [Example 143, 2-[(3R,6R,7R,8E,22S)-6′-Chloro-12,12-ethylene-13,15,15-trioxo-spiro[11,20-dioxa-15-thia-1,14-diazatetracyclo[14.7.2.03,6.019,24]pentacosa-8,16,18,24-tetraene-22,1′-tetralin]-7-yl]oxy-N,N-dimethyl-acetamide], the IC50 in the assay on H929 cells was under 500 nM. Besides, the Ki on MCL-1 (class symbols) was under 1 nM.

As for `CN1C/C=C/[C@H](OC(=O)NC2CCC2)[C@@H]2CC[C@H]2CN2C[C@@]3(CCCc4cc(Cl)ccc43)COc3ccc(cc32)S(=O)(=O)NC(=O)C1(C)C` [Example 201, [(3R,6R,7S,8E,22S)-6′-Chloro-11,12,12-trimethyl-13,15,15-trioxo-spiro[20-oxa-15-thia-1,11,14-triazatetracyclo[14.7.2.03,6.019,24]pentacosa-8,16,18,24-tetraene-22,1′-tetralin]-7-yl] N-cyclobutylcarbamate], the IC50 with H929 cells was under 500 nM. Besides, the Ki on MCL-1 (class symbols) was under 1 nM.

Take `CC1(C)OC/C=C/[C@H](OCC(=O)N2CCC2)[C@@H]2CC[C@H]2CN2C[C@@]3(CCCc4cc(Cl)ccc43)COc3ccc(cc32)S(=O)(=O)NC1=O` [Example 279, (3R,6R,7S,8E,22S)-7-[2-(Azetidin-1-yl)-2-oxo-ethoxy]-6′-chloro-12,12-dimethyl-15,15-dioxo-spiro[11,20-dioxa-15-thia-1,14-diazatetracyclo[14.7.2.03,6.019,24]pentacosa-8,16,18,24-tetraene-22,1′-tetralin]-13-one]: the IC50 in the assay with H929 cells is under 500 nM. Also, the Ki on MCL-1 (class symbols) is under 1 nM.

Take `CO[C@@H]1/C=C/CN(C(C)=O)[C@H](C)C(=O)NS(=O)(=O)c2ccc3c(c2)N(C[C@@H]2CC[C@H]21)C[C@@]1(CCCc2cc(Cl)ccc21)CO3` [Example 133, (3R,6R,7R,8E,12R,22S)-6′-Chloro-7-methoxy-11-acetyl-12-methyl-15,15-dioxo-spiro[20-oxa-15-thia-1,11,14-triazatetracyclo[14.7.2.03,6.019,24]pentacosa-8,16(25),17,19(24)-tetraene-22,1′-tetralin]-13-one]: in the assay with H929 cells, the IC50 was over 1000 nM. Moreover, the Ki at MCL-1 (class symbols) lay in the range of 1 to 100 nM.

As for `CO[C@@H]1/C=C/CN(C)C(C)(C)C(=O)NS(=O)(=O)c2ccc3c(c2)N(C[C@@H]2CC[C@H]21)C[C@@]1(CCCc2cc(Cl)ccc21)CO3` [Example 42, (3R,6R,7R,8E,22S)-6′-Chloro-7-methoxy-11,12,12-trimethyl-15,15-dioxo-spiro[20-oxa-15-thia-1,11,14-triazatetracyclo[14.7.2.03,6.019,24]pentacosa-8,16,18,24-tetraene-22,1′-tetralin]-13-one], in the assay on H929 cells, the IC50 is under 500 nM. The Ki at MCL-1 (class symbols) was 1 to 100 nM.

For `CC(=O)NS(=O)(=O)c1ccc2c(c1)N(Cc1ccccc1)CC1(CCCc3cc(Cl)ccc31)CO2` (stereo not shown) [Example 4, N-(5-Benzyl-6′-chloro-spiro[2,4-dihydro-1,5-benzoxazepine-3,1′-tetralin]-7-yl)sulfonylacetamide], in the assay with H929 cells, the IC50 is over 1000 nM. The Ki at MCL-1 (numeric values) came to 207 nM.
